Results from US20140051762A1, “POLYCATIONIC COMPOUNDS AND USES THEREOF” (priority 2004, published 2014).
Values joined by “and” are separate entries in the source; they are usually repeats but may differ in a detail not shown here. Equal values may be shown once.

What was measured:
human red blood cells = experiment: lysis of 50% of human red blood cells (HC50); assay type: cell-based
Protocol: (§1) The following example illustrates the heparin antagonistic effects of polycationic compounds of the present invention. To determine the anti-heparin activity of the polycationic compounds an assay measuring the percent inhibition using a fixed concentration of polycationic compound or concentrations of polycationic compounds causing lysis of 50% of human red blood cells were conducted.
(§2) Factor Xa Inhibition: EC50. To determine the concentration of polycationic compound that causes about 50% […], fixed heparin concentrations were used and different amounts of heparin antagonists were added.

Factor Xa [1] = experiment: Factor Xa inhibition EC50 (fixed heparin concentrations, different amounts of heparin antagonist); assay type: biochemical; details: read-out: FactorXa Inhibition: EC50
Protocol: as §1
(§3) 10 IU of anti-thrombin was dissolved in 10 ml of buffer, resulting in a 1 IU/ml stock solution (250×) of the anti-thrombin. The 1 IU/ml (250×) stock solution of anti-thrombin and a 336 mM stock solution of NaCl were diluted into a total volume of 50 μl buffer so that the final anti-thrombin concentration was 0.004 IU/sample well and the NaCl was 150 mM/sample well. 1 μl of the compound to be tested, final concentration 10 μg/ml (corresponding to 0.5 logarithmic antagonist dilution) is added to the sample well. The samples are mixed and allowed to incubate at room temperature for 20 minutes. 50 μl of factor Xa dissolved in buffer is added to the sample well to a final concentration of 0.14 knat/well (2 μl of the 7.1 kna/1 ml stock solution to a final sample well buffer volume of 100 μl). The samples were mixed and further incubated at room temperature for 10 minutes. 10 μl of a 4 mM stock solution of the substrate S-2765 was added to each sample well for a final concentration of 0.4 mM in each sample well. The samples were mixed and hydrolyses of the chromogenic substrate Z-D-Arg-Gly-Arg-pNA (S-2765), thus liberating the chromophoric group pNA (p-nitroaniline), was monitored at 405 nm. The samples were mixed every 30 seconds to maintain a uniform mixture. ThermoLabsystems Multiskan Spectrum spectrophotometer was used to measure the absorbance spectrums. The increase in absorbance was proportional to the enzyme (factor Xa) activity. The % inhibition of factor Xa was determined using a standard curve.
as §2

Factor Xa [2] = experiment: anti-heparin assay, % Factor Xa inhibition at single concentration (chromogenic substrate S-2765); assay type: biochemical; details: Single concentration (10 ug/ml)
Protocol: as §1, §3

[3] = tested on: FGF2-induced angiogenesis in the CAM model; experiment: FGF2-induced angiogenesis in the chick chorioallantoic membrane (CAM) model; assay type: in vivo, chick embryo; details: for % inhibition ± SEM / Branch pts ± SEM: Table 3; for Mean % inhibition ± SEM: Table 4, n = 8
Protocol: The following example illustrates the anti-angiogenic effect of exemplary polycationic compounds of the present invention. Ten-day old embryos were purchased from Spafas, Inc. (Preston, Conn.) and were incubated at 37° C. with 55% relative humidity. In the dark with the help of a candling lamp, a small hole was punctured in the shell concealing the air sac with a hypodermic needle. A second hole was punctured in the shell on the broadside of the egg directly over an avascular portion of the embryonic membrane, as observed during candling. A false air sac was created beneath the second hole by the application of negative pressure to the first hole, which caused the chorioallantoic membrane (CAM) to separate from the shell. A window, approximately 1.0 cm^2, was cut in the shell over the dropped CAM with the use of a small crafts grinding wheel (Dremel, Division of Emerson Electric Company Racine, Wis.) which allowed direct access to the underlying CAM. Filter disks of #1 filter paper (Whatman International, United Kingdom) were soaked in 3 mg/mL cortisone acetate (Sigma, St. Louis, Mo.) in a solution of 95% ethanol and water and subsequently air dried under sterile conditions. FGF2 (Life Technologies, Gaithersburg, Md.) was used to grow vessels on the CAMs of 10 day old chick embryos. Sterile filter disks adsorbed with FGF2 dissolved in PBS at 1μg/mL were placed on growing CAMs. […] At 24 h, test compounds or control vehicle was added directly to CAM topically.
(§4) CAM tissue directly beneath FGF2-saturated filter disk was resected from embryos treated 48 hours prior with test compound or control. Tissues were washed three times with PBS. Sections were placed in a 35-mm petri dish (Nalgen Nunc, Rochester, N.Y.) and examined under a SV6 stereomicroscope (Karl Zeiss, Thornwood, N.Y.) at 50× magnification. Digital images of CAM sections adjacent to filters were collected using a 3-CCD color video camera system (Toshiba America, New York, N.Y.) and analyzed using Image-Pro Plus software (Media Cybernetics, Silver Spring, Md.). Table 4 contains the number of vessel branch points contained in a circular region equal to the area of a filter disk counted for each section.
as §4, with “48 h” for “48 hours”, “with” for “with test”, “dish (Nalge” for “dish (Nalgen”, “analyzed with the” for “analyzed using”, “Md.).” for “Md.). Table 4 contains the number of vessel branch points contained in a circular region equal to the area of a filter disk counted for each section.”

heparin = experiment: effect on coagulation time and heparin efficacy
Protocol: The following example illustrates the effect of a polycationic compound of the present invention on coagulation time. The anti-heparin assay as described herein was used. The assay contained either 1 mg/L, 2 mg/L or 4 mg/I of heparin and increasing amounts of Compound 26 was added.

[4] = Heparin 1 mg/L, Compound 26 1.25 mg/L
[5] = Heparin 1 mg/L, Compound 26 2 mg/L
[6] = Heparin 1 mg/L, Compound 26 2.5 mg/L
[7] = Heparin 1 mg/L, Compound 26 4 mg/L
[8] = Heparin 2 mg/L, Compound 26 2.5 mg/L
[9] = Heparin 2 mg/L, Compound 26 4 mg/L
[10] = Heparin 2 mg/L, Compound 26 5 mg/L
[11] = Heparin 2 mg/L, Compound 26 6 mg/L
[12] = Heparin 2 mg/L, Compound 26 10 mg/L
[13] = Heparin 4 mg/L, Compound 26 2.5 mg/L
[14] = Heparin 4 mg/L, Compound 26 4 mg/L
[15] = Heparin 4 mg/L, Compound 26 5 mg/L
[16] = Heparin 4 mg/L, Compound 26 6 mg/L
[17] = Heparin cell empty (4 mg/L from line above), Compound 26 10 mg/L

Structure (SMILES): CC(C)(C)c1cc(NC(=O)c2cccc(C(=O)Nc3cc(C(C)(C)C)cc(NC(=O)[C@H](N)CCCNC(=N)N)c3SCCN)c2)c(SCCN)c(NC(=O)[C@H](N)CCCNC(=N)N)c1 [Compound 7]
- HC50 (human red blood cells): 715 μg/ml and 519 μM
- EC50 (Factor Xa [1]): 3.7 µM
- % FactorXa Inhibition (Factor Xa [2]): 5.506%

Structure (SMILES): NCCOc1cc(OCCN)c(C(=O)Nc2cccc(N)c2SCCN)cc1C(=O)Nc1cccc(N)c1SCCN [Compound 25]
- HC50 (human red blood cells): >2,000 μg/ml
- EC50 (Factor Xa [1]): 5.3 µM
- % FactorXa Inhibition (Factor Xa [2]): 0%

Structure (SMILES): N=C(N)NCCC[C@@H](N)C(=O)Nc1cccc(NC(=O)c2cc(C(=O)Nc3cccc(NC(=O)[C@H](N)CCCNC(=N)N)c3SCCN)c(OCCN)cc2OCCN)c1SCCN [Compound 26]
- HC50 (human red blood cells): >2,000 μg/ml
- % inhibition ± SEM ([3]; 1.0 ug + FGF2 (1 ug)): 55 ± 8%
- Branch pts ± SEM ([3]; 1.0 ug + FGF2 (1 ug)): 123 ± 7
- Coagulation Time (heparin; [4]): 42.8 s
- Heparin Efficacy (heparin; [4]): 0.6506
- Coagulation Time (heparin; [5]): 33.4 s
- Heparin Efficacy (heparin; [5]): 0.2402
- Coagulation Time (heparin; [6]): 31.3 s
- Heparin Efficacy (heparin; [6]): 0.1485
- Coagulation Time (heparin; [7]): 27.9 s
- Heparin Efficacy (heparin; [7]): −1.67E−08
- Coagulation Time (heparin; [8]): 40.2 s
- Heparin Efficacy (heparin; [8]): 0.1108
- Coagulation Time (heparin; [9]): 33.9 s
- Heparin Efficacy (heparin; [9]): 0.03149
- Coagulation Time (heparin; [10]): 31.9 s
- Heparin Efficacy (heparin; [10]): 0.006297
- Coagulation Time (heparin; [11]): 31.8 s
- Heparin Efficacy (heparin; [11]): 0.005038
- Coagulation Time (heparin; [12]): 34.4 s
- Heparin Efficacy (heparin; [12]): 0.03778
- Coagulation Time (heparin; [13]): 124.8 s
- Heparin Efficacy (heparin; [13]): 0.513
- Coagulation Time (heparin; [14]): 87.4 s
- Heparin Efficacy (heparin; [14]): 0.3108
- Coagulation Time (heparin; [15]): 55.8 s
- Heparin Efficacy (heparin; [15]): 0.14
- Coagulation Time (heparin; [16]): 35.4 s
- Heparin Efficacy (heparin; [16]): 0.02973
- Coagulation Time (heparin; [17]): 29.9 s
- Heparin Efficacy (heparin; [17]): −2.06E−09
- effect on coagulation time (in words) (heparin; varying concentrations of heparin): decreased the coagulation time
- EC50 (Factor Xa [1]): 2 µM
- % FactorXa Inhibition (Factor Xa [2]): 48.14%

Structure (SMILES): N=C(N)NCCOc1cc(OCCNC(=N)N)c(C(=O)Nc2cccc(N)c2SCCNC(=N)N)cc1C(=O)Nc1cccc(N)c1SCCNC(=N)N [Compound 27]
- HC50 (human red blood cells): >2,000 μg/ml
- % inhibition ± SEM ([3]; 0.1 ug + FGF2 (1 ug)): 34 ± 9%
- Branch pts ± SEM ([3]; 0.1 ug + FGF2 (1 ug)): 144 ± 9
- EC50 (Factor Xa [1]): 9.7 µM
- % FactorXa Inhibition (Factor Xa [2]): 8.886%

Structure (SMILES): COc1ccc(NC(=O)C(CCCCN)NC(=O)c2cc(NC(=O)C(CCCCN)NC(=O)c3cc(NC(=O)C(CCCCN)NC(=O)c4cc(NC(=O)C(N)CCCCN)ccc4OC)ccc3OC)ccc2OC)cc1C(N)=O (stereo not shown) [Compound 50]
- HC50 (human red blood cells): 637 μg/ml and 377 μM
- Mean % inhibition ± SEM ([3]; 1.0 ug + FGF2 (1 ug)): 21 ± 9%
- Mean % inhibition ± SEM ([3]; 3.0 ug + FGF2 (1 ug)): 42 ± 8%
- Mean % inhibition ± SEM ([3]; 10 ug + FGF2 (1 ug)): 66 ± 7%
